Measured values taken from patent US10875895B2, “Antibacterial cell-penetrating peptides” (Purdue Research Foundation, priority 2018, dated 2020).
≈ marks a conversion by molar mass, not a printed value.

Key:
S. aureus RN 4220 = assay: MIC, broth microdilution (CLSI); type: cell-based; details: Staphylococcus aureus, RN4220
Description: (§1) The minimum inhibitory concentration (MIC) of the peptides (in uM/ml) and control antibiotics (vancomycin and gentamicin) in μg/mL, were determined using the broth microdilution method according to the guidelines of the Clinical and Laboratory Standards Institute (CLSI) guidelines. See CLSI. 2007. Methods for dilution antimicrobial susceptibility tests for bacteria that grow aerobically; approved standard M7-A7. CLSI, Wayne, Pa.

S. flexneri 1a = assay: MIC, broth microdilution (CLSI); type: cell-based; details: Shigella flexneri, enteric pathogens
Description: as §1

E. faecium 700221 = assay: microbe, parasite or virus in culture; details: Enterococcus faecium
S. aureus NRS 384 = assay: microbe, parasite or virus in culture; details: Staphylococcus aureus, NRS384
K. pneumoniae 1706 = assay: microbe, parasite or virus in culture; details: Klebsiella pneumoniae
K. pneumonia NR 41920 = assay: microbe, parasite or virus in culture; details: Klebsiella pneumoniae, NR41920
K. pneumonia NR 41928 = assay: microbe, parasite or virus in culture; details: Klebsiella pneumoniae, NR41928
A. baumannii 1605 = assay: microbe, parasite or virus in culture; details: Acinetobacter baumannii
P. aeruginosa 50573 = assay: microbe, parasite or virus in culture; details: Pseudomonas aeruginosa
E. cloacae 1134 = assay: microbe, parasite or virus in culture; details: Enterobacter cloacae
S. aureus NRS 383 = assay: microbe, parasite or virus in culture; details: Staphylococcus aureus, NRS383
S. aureus NRS 382 = assay: microbe, parasite or virus in culture; details: Staphylococcus aureus, NRS382
S. aureus ATCC 6538 = assay: microbe, parasite or virus in culture; details: Staphylococcus aureus, ATCC6538
S. epidermidis NRS 101 = assay: microbe, parasite or virus in culture; details: Staphylococcus epidermidis, NRS101
VRSA 5 = assay: microbe, parasite or virus in culture; details: Staphylococcus aureus
VRSA 10 = assay: microbe, parasite or virus in culture; details: Staphylococcus aureus
P. aeruginosa 48982 = assay: microbe, parasite or virus in culture; details: Pseudomonas aeruginosa
P. aeruginosa 31040 = assay: microbe, parasite or virus in culture; details: Pseudomonas aeruginosa
P. aeruginosa 31041 = assay: microbe, parasite or virus in culture; details: Pseudomonas aeruginosa
A. baumannii 1747 = assay: microbe, parasite or virus in culture; details: Acinetobacter baumannii
A baumannii 19606 = assay: microbe, parasite or virus in culture; details: Acinetobacter baumannii
L. monocytogenes 191112 = assay: microbe, parasite or virus in culture; details: Listeria monocytogenes
S. enteritidis = assay: microbe, parasite or virus in culture; details: Salmonella enterica
E. coli 21922 = assay: microbe, parasite or virus in culture; details: Escherichia coli
S. typhimurium LT2 = assay: microbe, parasite or virus in culture; details: Salmonella enterica

CN[C@H](CC(C)C)C(=O)N[C@H]1C(=O)N[C@@H](CC(N)=O)C(=O)N[C@H]2C(=O)N[C@H]3C(=O)N[C@H](C(=O)N[C@H](C(=O)O)c4cc(O)cc(O)c4-c4cc3ccc4O)[C@H](O)c3ccc(c(Cl)c3)Oc3cc2cc(c3O[C@@H]2O[C@H](CO)[C@@H](O)[C@H](O)[C@H]2O[C@H]2C[C@](C)(N)[C@H](O)[C@H](C)O2)Oc2ccc(cc2Cl)[C@H]1O [Vancomycin, vancomycin]
MIC (S. aureus RN 4220): 0.5 µM (≈ 0.725 µg/mL)
MIC (S. flexneri 1a): > 32 µM
MIC (E. faecium 700221): > 32 µM
MIC (S. aureus NRS 384): 0.5 µM (≈ 0.725 µg/mL)
MIC (K. pneumoniae 1706): > 32 µM
MIC (K. pneumonia NR 41920): > 32 µM
MIC (K. pneumonia NR 41928): > 32 µM
MIC (A. baumannii 1605): 8 µM (≈ 11.6 µg/mL)
MIC (P. aeruginosa 50573): > 32 µM
MIC (E. cloacae 1134): > 32 µM
MIC (S. aureus NRS 383): 4 µM (≈ 5.8 µg/mL)
MIC (S. aureus NRS 382): 1 µM (≈ 1.45 µg/mL)
MIC (S. aureus ATCC 6538): 0.5 µM (≈ 0.725 µg/mL)
MIC (S. epidermidis NRS 101): 2 µM (≈ 2.9 µg/mL)
MIC (VRSA 5): 4 µM (≈ 5.8 µg/mL)
MIC (VRSA 10): > 32 µM
MIC (P. aeruginosa 48982): > 32 µM
MIC (P. aeruginosa 31040): > 32 µM
MIC (P. aeruginosa 31041): > 32 µM
MIC (A. baumannii 1747): > 32 µM
MIC (A baumannii 19606): 32 µM (≈ 46.4 µg/mL)
MIC (L. monocytogenes 191112): 1 µM (≈ 1.45 µg/mL)
MIC (S. enteritidis): > 32 µM
MIC (E. coli 21922): > 32 µM
MIC (S. typhimurium LT2): > 32 µM
